Test results reported in patent US20100278858A1, “PROCESS FOR PREPARING […] STRAINS” (priority 2007, published 2010).

Legend:
[1] = system: HSV-1 (F); test: method of reducing viral plates (plaque reduction); assay type: cell-based
Method: (§1) According to the present invention, a method of reducing the viral plates comprises the following process: Vero cells monolayers developed in 24 wells microplates are infected with 50 UFP/well of virus in the absence or presence of different compounds concentrations. Each dilution is tested by duplicate. After 1 hour adsorption at 37° C., the inoculum is removed and covered by plating medium (culture media with methylcellulose at a final concentration of 0.7%). Inoculation is continued till the viral plates' appearance, which are then counted after fitting and dying the cells with violet crystal. Moreover, according to the present invention, 50% inhibitory concentration (IC50) means the compound concentration required for reducing about 50% the number of viral plates.
(§2) Compounds were present during the viral adsorption (1h, 37° C.) and after the infection. When a cytopathic action (ACP) between 80-90%, during a period among 24 to 72 hours p.i., was observed, cells were lysed with freeze-thawing cycles. In order to remove cellular moieties, the cellular lisate was centrifuged during 10 min at 1000 rpm, keeping the supernatant at −70° C. The supernatant was used to infect a new monolayer in the presence of SAMMA or PRO2000. […] The title and the IC50 of each viral passage was determined by viral plates reduction test (or after 2-3 passages) against SAMMA or PRO20000.

[2] = system: 1C3 syn 20-3; test: method of reducing viral plates (plaque reduction); assay type: cell-based, HSV-1
Method: as §1
(§3) Thus, preliminary tests of the cloned variants of passages with greater selection pressure of 1C3 (17, 20 and 21) with pyrimidine and purine analogous as aciclovir (ACV) and brivudin (BVDU) would disclose alterations at viral TK level as it is shown in Table VIII, a characteristic that, up to date, has not been published in previous art documents. The TK gene is not essential for the in vitro viral replication, though in vivo, is involved in the virulence, pathogenicity and reactivation since latency (Andrei G et al., 2005). […] Therefore, the selection pressure to which the viruses were subjected could have selected mutations in the TK gene and in additional superimposing genes generating strains with less in vivo pathogenic action (Jacobson J et al., 1993).

[3] = system: 1C3 syn 17-3; test: method of reducing viral plates (plaque reduction); assay type: cell-based, HSV-1
Method: as §1, §3

[4] = system: 1C3 syn 21-3; test: method of reducing viral plates (plaque reduction); assay type: cell-based, HSV-1
Method: as §1, §3

[5] = system: 1C3 syn 20-1; test: method of reducing viral plates (plaque reduction); assay type: cell-based, HSV-1
Method: as §1, §3

[6] = system: 1C3 syn 21-2; test: method of reducing viral plates (plaque reduction); assay type: cell-based, HSV-1
Method: as §1, §3

[7] = system: 1C3 syn 20-2; test: method of reducing viral plates (plaque reduction); assay type: cell-based, HSV-1
Method: as §1, §3

[8] = system: 1C3 syn 17-1; test: method of reducing viral plates (plaque reduction); assay type: cell-based, HSV-1
Method: as §1, §3

[9] = system: 1C3 syn 17-2; test: method of reducing viral plates (plaque reduction); assay type: cell-based, HSV-1
Method: as §1, §3

[10] = system: 1C3 syn 21-1; test: method of reducing viral plates (plaque reduction); assay type: cell-based, HSV-1
Method: as §1, §3

[11] = system: 1C3-syn-14-1; test: method of reducing viral plates (plaque reduction); assay type: cell-based, HSV-1
Method: as §1, §2

[12] = system: 1C3-syn-13-8; test: method of reducing viral plates (plaque reduction); assay type: cell-based, HSV-1
Method: as §1, §2

[13] = system: HSV-1 TK^− B2006; test: method of reducing viral plates (plaque reduction); assay type: cell-based
Method: as §1, §3

[14] = system: SAMMA-15-7; test: method of reducing viral plates (plaque reduction); assay type: cell-based, HSV-2
Method: as §1, §2
(§4) By the end of a year, the corresponding virus to passages 13 and 16 in the presence of PRO2000 and SAMMA, respectively, were cloned in monolayers of Vero cells developed in 6 wells plates. The cellular monolayers were infected with a limited dilution of virus and were coated with maintenance media (MM) containing agarose 0.6%. After 2 days incubation, cells were dyed with neutral red and clones were stippled. For clone amplification, Vero cells with each selected clone were infected; after 1 hour adsorption at 37° C., the innoculum was discarded and was covered with MM, subjected to incubation 24-48 h at 37° C. till ACP development was observed.

[15] = system: Pro2000-syn13-1; test: method of reducing viral plates (plaque reduction); assay type: cell-based, HSV-2
Method: as §1, §2, §4

[16] = system: SAMMA-15-3; test: method of reducing viral plates (plaque reduction); assay type: cell-based, HSV-2
Method: as §1, §2, §4

[17] = system: Pro2000-syn13-9; test: method of reducing viral plates (plaque reduction); assay type: cell-based, HSV-2
Method: as §1, §2, §4

[18] = system: Pro2000-13-10; test: method of reducing viral plates (plaque reduction); assay type: cell-based, HSV-2
Method: as §1, §2, §4

[19] = system: Pro2000-13-5; test: method of reducing viral plates (plaque reduction); assay type: cell-based, HSV-2
Method: as §1, §2, §4

[20] = system: HSV-2 (G); assay type: cell-based; settings: virus HSV-2 (G)
Method: as §1, §2

## Heparine
[1]; Table IV, virus HSV-1 (F)
  IC50: 1.4 µg/mL
[1]; Table VIII, strain HSV-1 (F)
  IC50: 1.25 µg/mL
[2]; IC50 of clone 1C3 syn 20-3 / IC50 of HSV-1 (F)
  Relative resistance (RR): > 16.0
[2]; strain 1C3 syn 20-3
  IC50: > 20 µg/mL
[3]; IC50 of clone 1C3 syn 17-3 / IC50 of HSV-1 (F)
  Relative resistance (RR): 5.7
[3]; strain 1C3 syn 17-3
  IC50: 7.1 µg/mL
[4]; IC50 of clone 1C3 syn 21-3 / IC50 of HSV-1 (F)
  Relative resistance (RR): 5.7
[4]; strain 1C3 syn 21-3
  IC50: 7.1 µg/mL
[5]; IC50 of clone 1C3 syn 20-1 / IC50 of HSV-1 (F)
  Relative resistance (RR): > 16.0
[5]; strain 1C3 syn 20-1
  IC50: > 20 µg/mL
[6]; IC50 of clone 1C3 syn 21-2 / IC50 of HSV-1 (F)
  Relative resistance (RR): 8.0
[6]; strain 1C3 syn 21-2
  IC50: 10.0 µg/mL
[7]; IC50 of clone 1C3 syn 20-2 / IC50 of HSV-1 (F)
  Relative resistance (RR): > 16.0
[7]; strain 1C3 syn 20-2
  IC50: > 20 µg/mL
[8]; IC50 of clone 1C3 syn 17-1 / IC50 of HSV-1 (F)
  Relative resistance (RR): 8.0
[8]; strain 1C3 syn 17-1
  IC50: 10.0 µg/mL
[9]; IC50 of clone 1C3 syn 17-2 / IC50 of HSV-1 (F)
  Relative resistance (RR): > 16.0
[9]; strain 1C3 syn 17-2
  IC50: > 20 µg/mL
[10]; IC50 of clone 1C3 syn 21-1 / IC50 of HSV-1 (F)
  Relative resistance (RR): 8.0
[10]; strain 1C3 syn 21-1
  IC50: 10.0 µg/mL
[11]; Table IV, IC50 of variant 1C3-syn-14-1 / IC50 for HSV-1 (F)
  RR (relative resistance): 2.9
[11]; Table IV, virus 1C3-syn-14-1
  IC50: 4.1 µg/mL
[11]; Table VIII, IC50 of clone 1C3 syn 14-1 / IC50 of HSV-1 (F)
  Relative resistance (RR): 5.7
[11]; Table VIII, strain 1C3 syn 14-1
  IC50: 7.1 µg/mL
[11]; variant 1C3-syn-14-1
  susceptibility of variant to drug (in words): resistant
[12]; IC50 of variant 1C3-syn-13-8 / IC50 for HSV-1 (F)
  RR (relative resistance): 0.9
[12]; Table IV, virus 1C3-syn-13-8
  IC50: 1.2 µg/mL
[12]; variant 1C3-syn-13-8
  susceptibility of variant to drug (in words): sensitive
[13]; IC50 of HSV-1 TK^− B2006 / IC50 of HSV-1 (F)
  Relative resistance (RR): 3.0
[13]; strain HSV-1 TK^− B2006
  IC50: 3.5 µg/mL
[14]; IC50 of variant SAMMA-15-7 / IC50 for HSV-2 (G)
  RR (relative resistance): 6.7
[14]; virus SAMMA-15-7
  IC50: 12.0 µg/mL
[15]; IC50 of variant Pro2000-syn13-1 / IC50 for HSV-2 (G)
  RR (relative resistance): 4.3
[15]; virus Pro2000-syn13-1
  IC50: 7.8 µg/mL
[16]; IC50 of variant SAMMA-15-3 / IC50 for HSV-2 (G)
  RR (relative resistance): 4.6
[16]; variant SAMMA-15-3
  susceptibility of variant to drug (in words): resistant
[16]; virus SAMMA-15-3
  IC50: 8.4 µg/mL
[17]; IC50 of variant Pro2000-syn13-9 / IC50 for HSV-2 (G)
  RR (relative resistance): 10.8
[17]; variant Pro2000-syn-13-9
  susceptibility of variant to drug (in words): resistant
[17]; virus Pro2000-syn13-9
  IC50: 19.5 µg/mL
[18]; IC50 of variant Pro2000-13-10 / IC50 for HSV-2 (G)
  RR (relative resistance): 1.4
[18]; virus Pro2000-13-10
  IC50: 2.6 µg/mL
[19]; IC50 of variant Pro2000-13-5 / IC50 for HSV-2 (G)
  RR (relative resistance): 1.2
[19]; virus Pro2000-13-5
  IC50: 2.2 µg/mL
[20]
  IC50: 1.8 µg/mL
